Test results published in patent US5270316A, “Condensed purine derivatives” (Kyowa Hakko Kogyo Co., Ltd., priority 1989, dated 1993).
Read-outs that look alike come from different tables or passages of the source.

How the values were obtained:
[1] = Acute toxicity, minimum lethal dose (oral, mice); type: in vivo; settings: male dd-mice, mortality observed for seven days
Method: The compounds were orally administrated to male dd-mice weighing 20±1 g. Minimum lethal dose (MLD) was determined by observing the mortality for seven days after the administration.

trachea = assay: Passive Schultz-Dale reaction (bronchodilatory effects), relaxation of sensitized trachea strips; set-up: species or system guinea pig (Hartley male); settings: Cavia porcellus; sensitized guinea pig trachea, EWA 1 μg/ml, 37° C.; read-out: Passive S-D reaction IC50 (concentration of 50% relaxation rate)
Method: Guinea pigs were passively sensitized as follows. […] After 24 hours, the guinea pigs were stunned and exsanguinated, and then trachea was excised. The zig-zag strips of the trachea were prepared by the method of Emmerson and Mackay [J. Pharm. […] After the contraction curves reached plateau the compounds were successively added in order to get cumulative concentration-relaxation curves.

Experimental asthma = Experimental asthma (collapse time after antigen aerosol); type: in vivo, guinea pig (Hartley male); settings: 50 mg/kg oral, passively sensitized guinea pigs, 1.5% EWA aerosol; control 254 ± 18
Method: Guinea pigs were passively sensitized as follows. Hartley male guinea pigs weighing 350 to 500 g were intraperitoneally injected with 1 ml of rabbit anti-egg alubmin (EWA) serum prepared by the method of Koda et al. [Folia pharmacol., Japon, 66, 237 (1970)]. The animals were treated with intraperitoneal injection of diphenhydramine (20 mg/kg) and propranolol (5 mg/kg), 30 minutes before administration of test compounds. 17 hours after the sensitization, the test compounds (50 mg/kg) or saline (control) were orally administered to sensitized animals. After one hour from the administration of the test compounds, the guinea pigs were placed in plastic observation box and were exposed to an aerosal antigen of 1.5% EWA.
The time until the onset of respiratory distress-like symptom [collapse time (second)] was measured as a result of experimental asthma.

[2] = Diuretic activity (oral, urine collected for 6 hours); type: in vivo, rat (Wistar male rats); settings: Rattus norvegicus, rats; for response vs control in vivo at 6.25 mg/kg: 6.25 mg/kg oral; for response vs control in vivo at 25 mg/kg: 25 mg/kg oral
Method: Wistar male rats weighing 150 to 300 g were used after they were fasted for 18 hours. A test compound or saline (control) was orally administered to rats and urine was collected for 6 hours. The test was performed using 3 groups per the test compound, and each group consists of 3 animals. The urine was metered by a measuring cylinder and electrolytes (Na^+ and K^+) in the urine were assayed with a flame photometer (model […] manufactured by Hitachi Ltd.). Parameters in Table 3 are all expressed by relative value for control.

[3] = system: Glycerol-induced Renal Deficient Model; assay: Renal protecting activity (glycerol-induced renal deficient model): serum creatinine and urea nitrogen; type: in vivo, rat (Wistar male rats); settings: 10 mg/kg intraperitoneal, rats, 24 hours after glycerol injection; own control beside each compound; normal control 0.50
Method: It is well known that subcutaneous or intramuscular administration of glycerol to rat induce acute renal insufficiency characterized by renal tubular disturbance [Can J. Physiol.
Wistar male rats (fasted both food and water for 18 hours) were used. A test compound or saline (control) was intraperitoneally administered (dose: 10 mg/kg) to rats. After 30 minutes rats were anesthesized with ether and the back skin was picked up and 0.8 ml/100 g of 50% glycerol was subcutaneously administered. 24 hours after the glycerol injection, the rats were anesthesized with ether and 5 ml of the blood was collected from the descending aorta. To obtain the serum, after allowing it to stand for 30 minutes or longer, the blood sample was centrifuged at 3000 rpm for 10 minutes. Creatinine in the serum sample was determined using autoanalyzer (AU510, Olympus) or clinical analysis kit of creatinine (Creatinine Test Wako; by Wako Pure Chemical Ind., Japan). Urea nitrogen in the serum was determined using autoanalyzer (AU510; made by Olympus Optical Co., Ltd, Japan) or clinical analysis kit of urea nitrogen (Urea nitrogen test wako; by Wako Pure Chemical Ind., Japan).

[4] = system: Platelet Activating Factor (PAF)-induced mortality; assay: Inhibition of Platelet Activating Factor (PAF)-induced mortality; type: in vivo, mouse (male dd mice); settings: Mus musculus, 2 h, oral, mice, one hour before PAF 40 μg/kg i.v., p<0.05 vs control, read-out: PAF-induced mortality inhibition, minimum effective dose (MED)
Method: The experiment was performed by a minor modification of method of Carlson et al. [Agents and Actions, 21, 379 (1987)]. Groups each consisting of 10 male dd mice (weighing 28 to 32 g) were used, and 100 mg/kg of test compound or a saline (control) was orally administrated. One hour after the administration of test compound, 40 μg/kg of PAF (manufactured by Avanti Polar Lipids Co., Ltd.) was intravenously administered. Two hours after PAF injection, the mortality rate of the animals was observed.

[5] = J. Med. Chem., 23, 1188 (1980); cited from earlier work
[6] = relative value for control (1.00), read-out: Na+/K+
[7] = relative value for control, read-out: Excretion of K+
[8] = relative value for control, read-out: Excretion of Na+
[9] = relative value for control, read-out: Urine volume

Structure (SMILES) | Minimum lethal dose (MLD) [1] | IC50 (trachea) | Experimental asthma, collapse time (Experimental asthma) | minimal effective dose [4] | other results
Cn1cnc2c1C1=NCCN1C(=O)N2Cc1ccccc1 [10 Sa] | > 300 mg/kg | 9.7 µM | 357 ± 65 s | – | –
CCCN1C(=O)N2CC(C(C)C)N=C2c2[nH]c(C3CCCC3)nc21 (centres unmarked) [13 Sa] | – | – | 374 ± 76 s | – | response vs control in vivo at 6.25 mg/kg [2, 6]: 163%; response vs control in vivo at 6.25 mg/kg [2, 7]: 18%; response vs control in vivo at 6.25 mg/kg [2, 8]: 92%; response vs control in vivo at 6.25 mg/kg [2, 9]: 140%
CCCN1C(=O)N2CCN=C2c2[nH]cnc21 [Compound 2, 4-n-Propyl-1,4,7,8-tetrahydro-5H-imidazo[2,1-i]purin-5-one] | – | 21 µM | 552 ± 20 s | 100 mg/kg | Creatinine in serum, glycerol treated, test compound administrated [3]: 1.63 ± 0.19 mg/dL
CCCN1C(=O)N2C(=NCC2c2ccccc2)c2c1ncn2C (centres unmarked) [Compound 5, 1-Methyl-7-phenyl-4-n-propyl-1,4,7,8-tetrahydro-5H-imidazo[2,1-i]purin-5-one] | > 300 mg/kg | 32 µM | 542 ± 36 s | – | response vs control in vivo at 25 mg/kg [2, 6]: 167%; response vs control in vivo at 25 mg/kg [2, 7]: 77%; response vs control in vivo at 25 mg/kg [2, 8]: 197%; response vs control in vivo at 25 mg/kg [2, 9]: 165%
Cn1c(=O)c2[nH]cnc2n(C)c1=O [Theophylline, reference compound] | – | 23 µM | 414 ± 47 s | 100 mg/kg | –
O=C1N2CCN=C2c2[nH]cnc2N1Cc1ccc(Cl)cc1 [formula (A)] | – | – | – | – | bronchodilatory effect [5]: slight bronchodilatory effect
